Patent US5994349A, “3-carboalkoxy-2, 3-dihydro-1H-phenothiazin-4[10H]-one derivatives” (priority 1997, dated 1999)
Read-outs that look alike come from different tables or passages of the source.

Key:
neurotoxicity (rotorod) [1] = assay: rotorod toxicity, oral rat (Phase VIA/VIB); assay type: in vivo, male Sprague-Dawley rats; conditions: rat oral, 30 mg/kg
Procedure: (§1) Initial evaluations for anticonvulsant activity include phases I, VIA and VIB test procedures. These tests are performed intraperitoneally in male Carworth Farms No. 1 (CF1) mice, weighing 18-25 g (Phase I) or orally in male Sprague-Dawley rats, weighing 100-150 g (Phases VIA and VIB). The evaluation is based on three tests: maximal electroshock (MES), subcutaneous (scMet), and the rotorod test for neurological toxicity (Tox). (a) Anticonvulsant Screening Project, Antiepileptic Drug Development Program, National Institutes of Health, DHEW Publ (NIH)(U.S.) 1978, NIH 78-1093. (b) Porter, R. J.; Cereghino, J. J.; Gladding, G. D.; Hessie, B. J.; Kupferberg, H. J.; Scoville, B.; White, B. G. Antiepileptic drug development program. Cleveland Clin. Q. 1984, 51, 293-305. (c) Krall, R. L.; Penry, J. K.; White, B. G.; Kupferberg, H. J.; Swinyard, E. A. Antiepileptic drug development: II. Anticonvulsant drug screening. Epilepsia 1978, 19, 400-428. In the MES test, maximal electroshock seizures are elicited with a 60- cycle alternating current of 50 mA intensity (5-7 times that necessary to elicit minimal electroshock seizures) delivered via corneal electrodes for 0.2 seconds. A drop of 0.9% saline is placed on the eye prior to application of the electrodes in order to […]. Abolition of the hind limb tonic extension component of the seizure is defined as protection and results are expressed as the number of animals protected/the number of animals tested.
The rotorod test is used to evaluate neurotoxicity. The animal is placed on a 1 inch diameter knurled plastic rod rotating at 6 rpm. Normal mice can remain on a rod rotating at this speed indefinitely.
(§2) To differentiate the results between different rodent species, 4b (X=H), as well as 4a (R=H), 4e (R=Cl), 4f (R=Cl) and 4i (R=CH3) are subsequently evaluated for oral (po) activity in the rat (Phase VIA or VIB).

[2] = system: pentylenetetrazol seizures; assay: subcutaneous pentylenetetrazol (scMet) test, Phase I, mice ip; assay type: in vivo, male Carworth Farms No. 1 (CF1) mice; conditions: for responders at 10 mg/kg / responders at 30 mg/kg / responders at 100 mg/kg / responders at 300 mg/kg: Mus musculus
Procedure: as §1
In the sc MET test, eighty-five mg/kg of pentylenetetrazol, which induces seizures in more than 95% of mice, is administered as a 0.5% solution subcutaneously in the posterior midline. The animal is observed for 30 minutes. Failure to observe even a threshold seizure (a single episode of clonic spasms of at least 5 seconds duration) is defined as protection and the results are expressed as the number of animals protected/ the number of animals tested. […]

[3] = system: maximal electroshock seizures; assay: maximal electroshock (MES) test, oral rat (Phase VIA/VIB); assay type: in vivo, male Sprague-Dawley rats; conditions: 30 mg/kg
Procedure: as §1, §2

neurotoxicity (rotorod) [4] = assay: rotorod test for neurological toxicity (Tox), Phase I, mice ip; assay type: in vivo, male Carworth Farms No. 1 (CF1) mice
Procedure: as §1
The rotorod test is used to evaluate neurotoxicity. The animal is placed on a 1 inch diameter knurled plastic rod rotating at 6 rpm. Normal mice can remain on a rod rotating at this speed indefinitely. […]

[5] = system: maximal electroshock seizures; assay: maximal electroshock (MES) test, Phase I, mice ip; assay type: in vivo, male Carworth Farms No. 1 (CF1) mice; conditions: Mus musculus
Procedure: as §1
In phase I, compounds are suspended in 0.5% aqueous methylcellulose and are administered intraperitoneally at three dosage levels (30, 100, and 300 mg/kg) with anticonvulsant activity and motor impairment noted 30 min and 4 h (and in some cases 2 h and 6 h) after administration.

[6] = 0.5 h, mice ip, 30 min, read-out: scMet 30 min
[7] = mice ip, 4 h, read-out: scMet 4 h
[8] = 4 h, read-out: MES 4 h (converted)
[9] = 0.5 h, 30 min, read-out: MES 30 min (converted)
[10] = 0.5 h, mice ip, 30 min, read-out: scMet 30 min (converted)
[11] = mice ip, 4 h, read-out: scMet 4 h (converted)

Structure (SMILES)	Tox (neurotoxicity (rotorod) [1]; 0.25 h)	Tox (neurotoxicity (rotorod) [1]; 0.50 h)	Tox (neurotoxicity (rotorod) [1]; 1.00 h)	responders at 30 mg/kg [2, 6] [%]	responders at 100 mg/kg [2, 6] [%]	responders at 30 mg/kg [2, 7] [%]	responders at 100 mg/kg [2, 7] [%]	responders at 30 mg/kg ([3]; 0.25 h) [%]	responders at 30 mg/kg ([3]; 1.00 h) [%]	responders at 30 mg/kg ([3]; 0.5 h, 0.50 h) [%]	Tox 30 min (neurotoxicity (rotorod) [4]; 30 mg/kg)	Tox 4 h (neurotoxicity (rotorod) [4]; 30 mg/kg)	Tox 30 min (neurotoxicity (rotorod) [4]; 100 mg/kg)	Tox 4 h (neurotoxicity (rotorod) [4]; 100 mg/kg)	responders at 30 mg/kg ([5]; 4 h, read-out: MES 4 h) [%]	responders at 100 mg/kg [5, 8] [%]	responders at 30 mg/kg [5, 9] [%]	responders at 100 mg/kg [5, 9] [%]	responders at 300 mg/kg [2, 10] [%]	responders at 300 mg/kg [2, 11] [%]	other results
COC(=O)[C@@H]1C(=O)C2=C(C[C@H]1C)Nc1ccc(Br)cc1S2 (relative stereo) [Compound 4j, 7-Bromo-3-carbomethoxy-2-methyl-2,3-dihydro-1H-phenothiazin-4[10H]-one]	0/4	0/4	0/2	0	0	0	0	50	50	75	0/8	0/4	0/4	0/2	0	0	33.3	100	–	–	responders at 10 mg/kg ([2]; 0.5 h, mice ip, 10 mg/kg, 30 min, read-out: scMet 30 min): 0%; responders at 10 mg/kg ([2]; mice ip, 10 mg/kg, 4 h, read-out: scMet 4 h): 0%; observation in scMet test (footnote g) ([2]; mice ip, 10 and 30 mg/kg, 30 min): Continuous seizure activity; observation in scMet test (footnote h) ([2]; mouse, in vivo, ip, 10 mg/kg): Death following continuous seizure; Tox 30 min (neurotoxicity (rotorod) [4]; 10 mg/kg): 0/4; Tox 4 h (neurotoxicity (rotorod) [4]; 10 mg/kg): 0/2; responders at 10 mg/kg ([5]; 4 h, read-out: MES 4 h): 0%; responders at 10 mg/kg ([5]; 0.5 h, 30 min, read-out: MES 30 min): 0%
CCOC(=O)[C@@H]1C(=O)C2=C(C[C@H]1C)Nc1ccc(C)cc1S2 (relative stereo) [Compound 4i, 3-Carbethoxy-2,7-dimethyl-2,3-dihydro-1H-phenothiazin-4[10H]-one]	0/4	0/4	0/4	0	0	0	0	0	75	50	0/4	0/2	0/8	0/4	0	0	50	33.3	0	0	Tox (neurotoxicity (rotorod) [1]; 2.00 h): 0/4; Tox (neurotoxicity (rotorod) [1]; 4.00 h): 0/4; responders at 30 mg/kg ([3]; 2.00 h): 25%; responders at 30 mg/kg ([3]; 4.00 h): 0%; Tox 30 min (neurotoxicity (rotorod) [4]; 300 mg/kg): 0/4; Tox 4 h (neurotoxicity (rotorod) [4]; 300 mg/kg): 0/2; responders at 300 mg/kg [5, 8]: 100%; responders at 300 mg/kg [5, 9]: 100%
C[C@@H]1CC2=C(Sc3cc(Cl)ccc3N2)C(=O)[C@H]1C(=O)OC(C)(C)C (relative stereo) [Compound 4g, 7-Chloro-3-carbo-ter-butoxy-2-methyl-2,3-dihydro-1H-phenothiazin-4[10H]-one]	–	–	–	0	0	0	0	–	–	–	0/4	0/2	0/8	0/4	0	33.3	0	0	0	0	Tox 30 min (neurotoxicity (rotorod) [4]; 300 mg/kg): 0/4; Tox 4 h (neurotoxicity (rotorod) [4]; 300 mg/kg): 0/2; responders at 300 mg/kg [5, 8]: 100%; responders at 300 mg/kg [5, 9]: 0%
